# From patent US12162893B2 (Erasca, Inc., priority 2020, dated 2024)
# Molecular target: T1, mutant G12C K-RAS (Homo sapiens, UniProt P01116, G12C)
# T1 construct: made in house; host or cells: E. coli BL21
# Experiment: covalent adduct formation (CAF) with mutant G12C K-RAS
# Type: binding
# Design: CAF: unit not given here
# Settings: Table 1, Pyrimidone Core-Morpholine Unsubstituted; after 60 minutes at 10 micromolar
# Method: Embodiments disclosed herein are further illustrated by the following examples in Tables 1-4 and the Examples hereinbelow. The Tables indicate the compound number, structure, the observed mass spectral molecular weight peak, and covalent adduct formation (CAF) with a mutant G12C K-RAS after 60 minutes at a concentration of 10 micromolar.
row,SMILES,% CAF (60 min) [%]
1,"C=CC(=O)N1C[C@H](C)N(c2nc(=O)n3c4c(c(-c5cc(F)cc(Cl)c5)ccc24)OCC3)C[C@H]1C [Example 16, 7-((2S,5R)-4-acryloyl-2,5-dimethylpiperazin-1-yl)-10-(3-chloro-5-fluorophenyl)-2H-[1,4]oxazino[2,3,4-ij]quinazolin-5(3H)-one]",0
2,"C=CC(=O)N1C[C@H](C)N(c2nc(=O)n3c4c(c(-c5cccc6ccccc56)ccc24)OCC3)C[C@H]1C [Example 13, 7-((2S,5R)-4-acryloyl-2,5-dimethylpiperazin-1-yl)-10-(naphthalen-1-yl)-2H-[1,4]oxazino[2,3,4-ij]quinazolin-5(3H)-one]",3
3,"C=C(F)C(=O)N1CCN(c2nc(=O)n3c4c(c(-c5c(O)cccc5F)c(Cl)cc24)OCC3)C[C@@H]1CC#N (atropisomer, axis not shown) [Example 10, 2-((2S)-4-(9-chloro-10-(2-fluoro-6-hydroxyphenyl)-5-oxo-3,5-dihydro-2H-[1,4]oxazino[2,3,4-ij]quinazolin-7-yl)-1-(2-fluoroacryloyl)piperazin-2-yl)acetonitrile]",8.5
4,"C=CC(=O)N1C[C@H](C)N(c2nc(=O)n3c4c(c(-c5ccc(Cl)cc5F)ccc24)OCC3)C[C@H]1C [Example 17, 7-((2S,5R)-4-acryloyl-2,5-dimethylpiperazin-1-yl)-10-(4-chloro-2-fluorophenyl)-2H-[1,4]oxazino[2,3,4-ij]quinazolin-5(3H)-one]",2
5,"C=CC(=O)N1CCN(c2nc(=O)n3c4c(c(-c5c(O)cccc5F)c(Cl)cc24)OCC3)CC1 [Example 5, (S)-7-(4-acryloylpiperazin-1-yl)-9-chloro-10-(2-fluoro-6-hydroxyphenyl)-2H-[1,4]oxazino[2,3,4-ij]quinazolin-5(3H)-one]",87.6

# Same assay, conditions: Table 2, Pyrimidone Core-Morpholine Substituted; after 60 minutes at 10 micromolar
row,SMILES,% CAF (60 min) [%]
1,"C=CC(=O)N1CCN(c2nc(=O)n3c4c(c(-c5c(O)cccc5F)c(Cl)cc24)OC[C@H]3CO)CC1 [Example 20, (3R,10R)-7-(4-acryloylpiperazin-1-yl)-9-chloro-10-(2-fluoro-6-hydroxyphenyl)-3-(hydroxymethyl)-2H-[1,4]oxazino[2,3,4-ij]quinazolin-5(3H)-one]",0

# Same assay, conditions: Table 3, Pyridone Core-Morpholine Unsubstituted; after 60 minutes at 10 micromolar
row,SMILES,CAF
1,"C=CC(=O)N1C[C@H](C)N(c2c(C#N)c(=O)n3c4c(c(-c5c(O)cccc5F)c(Cl)cc24)OCC3)C[C@H]1C [Example 42, (S)-7-((2S,5R)-4-acryloyl-2,5-dimethylpiperazin-1-yl)-9-chloro-10-(2-fluoro-6-hydroxyphenyl)-5-oxo-3,5-dihydro-2H-[1,4]oxazino[2,3,4-ij]quinoline-6-carbonitrile]",0

# Same assay, conditions: Table 4, Pyridone Core-Morpholine Substituted; after 60 minutes at 10 micromolar
row,SMILES,% CAF (60 min) [%]
1,"C=CC(=O)N1C[C@H](C)N(c2c(C#N)c(=O)n3c4c(c(-c5c(O)cccc5F)c(Cl)cc24)OC[C@@H]3CN(C)C)C[C@H]1C [Example 49, (3S)-7-((2S,5R)-4-acryloyl-2,5-dimethylpiperazin-1-yl)-9-chloro-3-((dimethylamino)methyl)-10-(2-fluoro-6-hydroxyphenyl)-5-oxo-3,5-dihydro-2H-[1,4]oxazino[2,3,4-ij]quinoline-6-carbonitrile]",0

# Same assay, conditions: Table 6; 10 μM, 1 h
row,SMILES,"% CAF @ 10 μM,1 h [%]"
1,"C=CC(=O)N1C[C@H](C)N(c2nc(=O)n3c4c(c(-c5cccc6ccccc56)c(Cl)cc24)OC[C@H]3Cn2ccnc2)C[C@H]1C (atropisomer, axis not shown) [Example 318, (3R,10S)-3-((1H-imidazol-1-yl)methyl)-7-((2S,5R)-4-acryloyl-2,5-dimethylpiperazin-1-yl)-9-chloro-10-(naphthalen-1-yl)-2,3-dihydro-5H-[1,4]oxazino[2,3,4-ij]quinazolin-5-one]",70.6
2,"C=CC(=O)N1C[C@H](C)N(c2nc(=O)n3c4c(c(-c5c(O)cccc5F)c(Cl)cc24)OC[C@@H]3CN2CCN(C)CC2)C[C@H]1C (atropisomer, axis not shown) [Example 314, (3S,10S)-7-((2S,5R)-4-acryloyl-2,5-dimethylpiperazin-1-yl)-9-chloro-10-(2-fluoro-6-hydroxyphenyl)-3-((4-methylpiperazin-1-yl)methyl)-2,3-dihydro-5H-[1,4]oxazino[2,3,4-ij]quinazolin-5-one]",74.8
3,"C=CC(=O)N1C[C@H](C)N(c2nc(=O)n3c4c(c(-c5cccc6ccccc56)c(Cl)cc24)OC[C@H]3Cn2cccn2)C[C@H]1C (atropisomer, axis not shown) [Example 306, (3R,10R)-3-((1H-pyrazol-1-yl)methyl)-7-((2S,5R)-4-acryloyl-2,5-dimethylpiperazin-1-yl)-9-chloro-10-(naphthalen-1-yl)-2,3-dihydro-5H-[1,4]oxazino[2,3,4-ij]quinazolin-5-one]",73.5
4,"C=CC(=O)N1C[C@H](C)N(c2nc(=O)n3c4c(c(-c5cccc6ccccc56)c(Cl)cc24)OC[C@H]3CN2CCN(C)CC2)C[C@H]1C (atropisomer, axis not shown) [Example 294, (3R,10R)-7-((2S,5R)-4-acryloyl-2,5-dimethylpiperazin-1-yl)-9-chloro-3-((4-methylpiperazin-1-yl)methyl)-10-(naphthalen-1-yl)-2H-[1,4]oxazino[2,3,4-ij]quinazolin-5(3H)-one]",75.2
5,"C=CC(=O)N1C[C@H](C)N(c2nc(=O)n3c4c(c(-c5ccc(F)cc5F)c(Cl)cc24)O[C@@H](CCCN2CCOCC2)C3)C[C@H]1C [Example 258, (2S)-7-((2S,5R)-4-acryloyl-2,5-dimethylpiperazin-1-yl)-9-chloro-10-(2,4-difluorophenyl)-2-(3-morpholinopropyl)-2,3-dihydro-5H-[1,4]oxazino[2,3,4-ij]quinazolin-5-one]",17.7
6,"C=CC(=O)N1C[C@H](C)N(c2nc(=O)n3c4c(c(-c5ccc(F)cc5F)c(Cl)cc24)OC[C@H]3Cn2ccnc2)C[C@H]1C [Example 267, (3R)-3-((1H-imidazol-1-yl)methyl)-7-((2S,5R)-4-acryloyl-2,5-dimethylpiperazin-1-yl)-9-chloro-10-(2,4-difluorophenyl)-2H-[1,4]oxazino[2,3,4-ij]quinazolin-5(3H)-one]",13.6
7,"C=CC(=O)N1C[C@H](C)N(c2nc(=O)n3c4c(c(-c5ccc(F)cc5F)c(Cl)cc24)OC[C@@H]3CN2CCS(=O)(=O)CC2)C[C@H]1C [Example 269, (3S)-7-((2S,5R)-4-acryloyl-2,5-dimethylpiperazin-1-yl)-9-chloro-10-(2,4-difluorophenyl)-3-((1,1-dioxidothiomorpholino)methyl)-2H-[1,4]oxazino[2,3,4-ij]quinazolin-5(3H)-one]",94.6
8,"C=CC(=O)N1C[C@H](C)N(c2nc(=O)n3c4c(c(-c5cccc6ccccc56)c(Cl)cc24)OC[C@H]3Cn2cccn2)C[C@H]1C (atropisomer, axis not shown) [Example 292, (3R,10S)-3-((1H-pyrazol-1-yl)methyl)-7-((2S,5R)-4-acryloyl-2,5-dimethylpiperazin-1-yl)-9-chloro-10-(naphthalen-1-yl)-2,3-dihydro-5H-[1,4]oxazino[2,3,4-ij]quinazolin-5-one]",95
9,"C=CC(=O)N1CCN(c2nc(=O)n3c4c(c(-c5c(O)cccc5F)c(Cl)cc24)OC[C@H]3CN2CCOCC2)[C@@H](C)C1 [Example 199, (3R,10R)-7-((S)-4-acryloyl-2-methylpiperazin-1-yl)-9-chloro-10-(2-fluoro-6-hydroxyphenyl)-3-(morpholinomethyl)-2,3-dihydro-5H-[1,4]oxazino[2,3,4-ij]quinazolin-5-one]",0
10,"C=CC(=O)N1C[C@H](C)N(c2nc(=O)n3c4c(c(-c5ccc(F)cc5F)c(Cl)cc24)OC[C@@H]3CCN2CCOCC2)C[C@H]1C [Example 217, (3S)-7-((2S,5R)-4-acryloyl-2,5-dimethylpiperazin-1-yl)-9-chloro-10-(2,4-difluorophenyl)-3-(2-morpholinoethyl)-2,3-dihydro-5H-[1,4]oxazino[2,3,4-ij]quinazolin-5-one]",83.4
11,"C=CC(=O)N1C[C@H](C)N(c2nc(=O)n3c4c(c(-c5ccc(F)cc5F)c(Cl)cc24)O[C@@H](CCCO)C3)C[C@H]1C [Example 247, (2S)-7-((2S,5R)-4-acryloyl-2,5-dimethylpiperazin-1-yl)-9-chloro-10-(2,4-difluorophenyl)-2-(3-hydroxypropyl)-2,3-dihydro-5H-[1,4]oxazino[2,3,4-ij]quinazolin-5-one]",42.2
12,"C=CC(=O)N1C[C@H](C)N(c2nc(=O)n3c4c(c(-c5ccc(F)cc5F)c(Cl)cc24)OC[C@H]3CCCN2CC3(COC3)C2)C[C@H]1C [Example 299, (3R)-3-(3-(2-oxa-6-azaspiro[3.3]heptan-6-yl)propyl)-7-((2S,5R)-4-acryloyl-2,5-dimethylpiperazin-1-yl)-9-chloro-10-(2,4-difluorophenyl)-2,3-dihydro-5H-[1,4]oxazino[2,3,4-ij]quinazolin-5-one]",75.4
13,"C=CC(=O)N1C[C@H](C)N(c2nc(=O)n3c4c(c(-c5ccc(F)cc5F)c(Cl)cc24)OC[C@@H]3COC2CCN(C)C2)C[C@H]1C (stereo in doubt) [Example 313, (3S)-7-((2S,5R)-4-acryloyl-2,5-dimethylpiperazin-1-yl)-9-chloro-10-(2,4-difluorophenyl)-3-((((S)-1-methylpyrrolidin-3-yl)oxy)methyl)-2,3-dihydro-5H-[1,4]oxazino[2,3,4-ij]quinazolin-5-one]",66.1
14,"C=CC(=O)N1C[C@H](C)N(c2nc(=O)n3c4c(c(-c5ccc(F)cc5F)c(Cl)cc24)OC[C@@H]3CN2CCN(C)CC2=O)C[C@H]1C [Example 274, (3S)-7-((2S,5R)-4-acryloyl-2,5-dimethylpiperazin-1-yl)-9-chloro-10-(2,4-difluorophenyl)-3-((4-methyl-2-oxopiperazin-1-yl)methyl)-2,3-dihydro-5H-[1,4]oxazino[2,3,4-ij]quinazolin-5-one]",67
